Measurements as given in US12492210B2, “Tricyclic compounds and their use” (HUTCHISON MEDIPHARMA LIMITED, priority 2019, dated 2025).
pIC50: −log10 of the molar value.

Assays:
MAPK1(ERK2) enzyme = biological target: T1, MAPK1(ERK2) enzyme (Homo sapiens, UniProt P28482); experiment: Z-Lyte Kinase Assay of ERK2; assay type: biochemical; conditions: read-out: Example 18 IC50
T1 construct: purchased Invitrogen PV3313
Procedure, shortened: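 FRET-based Z-LYTE assay using ERK2 kinase with Ser/Thr3 peptide; compound tested at 0.00046–1 μM final in 2% DMSO. Kinase reaction ran 1 h at 25-30° C, followed by 1 h development. The coumarin/fluorescein emission ratio (445/520 nm) gave % phosphorylation, and IC50 was fitted from inhibition relative to uninhibited control.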

[1] = test system: p-RSK (Thr359) in colo205 cells; experiment: p-RSK (Thr359) Acumen Assay in Colo205; assay type: cell-based; conditions: Homo sapiens, COLO 205, 1 hour compound incubation, read-out: Example 19 IC50
Procedure, shortened: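 Colo205 cells (4000/well, seeded overnight in 10% FBS) were exposed 1 hour at 37° C to compound added from a 3–0.001 μM dilution series in 5% DMSO. Cells were then fixed, permeabilised and immunostained for p-RSK Thr359, with PI counterstain. Acumen cytometry gave the percentage of positive cells, normalised to untreated wells and 3 uM GDC0994 wells, for the IC50 fit.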

T1 sequence (P28482 whole entry): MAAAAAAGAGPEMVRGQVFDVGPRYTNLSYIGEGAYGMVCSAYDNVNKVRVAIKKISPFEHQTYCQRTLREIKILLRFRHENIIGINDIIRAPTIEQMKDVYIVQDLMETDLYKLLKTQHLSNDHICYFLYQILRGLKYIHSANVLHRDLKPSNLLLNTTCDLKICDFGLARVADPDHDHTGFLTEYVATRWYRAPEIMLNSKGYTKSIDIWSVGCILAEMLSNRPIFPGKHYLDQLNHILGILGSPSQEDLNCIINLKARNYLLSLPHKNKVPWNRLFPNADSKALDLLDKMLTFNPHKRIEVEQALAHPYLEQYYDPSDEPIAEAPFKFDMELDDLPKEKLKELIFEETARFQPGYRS

SMILES	pIC50 (MAPK1(ERK2) enzyme)	pIC50 [1]
Cc1cccnc1C(F)(F)c1nnc2n1[C@@H](CF)Cn1cc(-c3cc(Nc4ccnn4C)ncc3Cl)cc1-2 [Compound 175]	≥ 8.30	< 7.00
Cc1cnc(Nc2ccnn2C)nc1-c1cc2n(c1)C[C@H](CF)n1c-2nnc1C(F)(F)c1ccccc1Cl [Compound 176]	8.00 to 8.30	≥ 7.00
Cc1ncccc1C(F)(F)c1nnc2n1[C@@H](CF)Cn1cc(-c3cc(Nc4ccnn4C)ncc3Cl)cc1-2 [Compound 177]	< 8.00	≥ 7.00
C[C@H]1Cn2cc(-c3cc(Nc4ccnn4C)ncc3Cl)cc2-c2nnc(C(F)(F)c3ccccc3Cl)n21 [Compound 178]	< 8.00	≥ 7.00
Cc1cnc(Nc2ccnn2C)cc1-c1cc2n(c1)C[C@H](C(F)F)n1c-2nnc1C(F)(F)c1ccccc1F [Compound 179]	< 8.00	≥ 7.00
Cc1cnc(Nc2ccnn2C)cc1-c1cc2n(c1)C[C@H](CF)n1c-2nnc1C(F)(F)c1cccc(F)c1F [Compound 180]	< 8.00	≥ 7.00
Cc1cnc(Nc2ccnn2C)cc1-c1cc2n(c1)C[C@H](CF)n1c-2nnc1C(F)(F)c1ccc(F)c(F)c1 [Compound 181]	8.00 to 8.30	< 7.00
Cc1cnc(Nc2ccnn2C)cc1-c1cc2n(c1)C[C@H](CF)n1c-2nnc1C(F)(F)c1cc(F)cc(F)c1 [Compound 182]	8.00 to 8.30	< 7.00
Cc1cnc(Nc2ccnn2C)cc1-c1cc2n(c1)C[C@H](CF)n1c-2nnc1C(F)(F)c1cc(F)ccc1F [Compound 183]	≥ 8.30	≥ 7.00
Cc1cnc(Nc2ccnn2C)cc1-c1cc2n(c1)C[C@H](CF)n1c-2nnc1C(F)(F)c1ccc(F)cc1F [Compound 184]	8.00 to 8.30	≥ 7.00
Cc1cnc(Nc2ccnn2C)cc1-c1cc2n(c1)C[C@H](CF)n1c-2nnc1C(F)(F)c1c(F)cccc1F [Compound 185]	< 8.00	≥ 7.00
Cc1cnc(Nc2ccnn2C)nc1-c1cc2n(c1)C[C@H](C(F)F)n1c-2nnc1C(F)(F)c1ccccc1F [Compound 186]	8.00 to 8.30	≥ 7.00
Cc1cnc(Nc2ccnn2C(F)F)nc1-c1cc2n(c1)C[C@H](C)n1c-2nnc1C(F)(F)c1ccccc1F [Compound 187]	< 8.00	≥ 7.00
Cc1cnc(Nc2ccnn2C)nc1-c1cc2n(c1)C[C@H](CF)n1c-2nnc1C(F)(F)c1ccc(F)cc1F [Compound 188]	8.00 to 8.30	≥ 7.00
Cc1cnc(Nc2ccnn2C)nc1-c1cc2n(c1)C[C@H](CF)n1c-2nnc1C(F)(F)c1c(F)cccc1F [Compound 189]	8.00 to 8.30	≥ 7.00
Cn1nccc1Nc1cc(-c2cc3n(c2)C[C@H](CF)n2c-3nnc2C(F)(F)c2ccccc2F)c(Cl)cn1 [Compound 190]	< 8.00	≥ 7.00
Cn1nccc1Nc1cc(-c2cc3n(c2)C[C@H](CF)n2c-3nnc2C(F)(F)c2cccc(F)c2)c(Cl)cn1 [Compound 191]	8.00 to 8.30	< 7.00
Cn1nccc1Nc1cc(-c2cc3n(c2)C[C@H](CF)n2c-3nnc2C(F)(F)c2ccccc2Cl)c(F)cn1 [Compound 192]	< 8.00	≥ 7.00
Cn1nccc1Nc1ncc(F)c(-c2cc3n(c2)C[C@H](CF)n2c-3nnc2C(F)(F)c2ccccc2Cl)n1 [Compound 193]	8.00 to 8.30	≥ 7.00
Cn1nccc1Nc1cc(-c2cc3n(c2)C[C@H](CF)n2c-3nnc2C(F)(F)c2ncccc2F)c(Cl)cn1 [Compound 194]	≥ 8.30	≥ 7.00
Cc1cnc(Nc2ccnn2C)cc1-c1cc2n(c1)C[C@H](CF)n1c-2nnc1C(F)(F)c1sccc1Cl [Compound 195]	≥ 8.30	≥ 7.00
Cn1nccc1Nc1cc(-c2cc3n(c2)C[C@H](C(F)F)n2c-3nnc2C(F)(F)c2ccccc2F)c(F)cn1 [Compound 196]	8.00 to 8.30	≥ 7.00
Cc1cnc(Nc2ccnn2C)cc1-c1cc2n(c1)C[C@H](CF)n1c-2nnc1C(F)(F)c1noc2ccccc12 [Compound 197]	8.00 to 8.30	< 7.00
Cc1cnc(Nc2ccnn2C)cc1-c1cc2n(c1)C[C@H](C(F)F)n1c-2nnc1C(F)(F)n1cc(Cl)cn1 [Compound 198]	≥ 8.30	≥ 7.00

SMILES	pIC50 (MAPK1(ERK2) enzyme)	pIC50 [1]
Cn1nccc1Nc1cc(-c2cc3n(c2)CC(F)(F)Cn2c(Cn4ncc5ccccc54)nnc2-3)c(Cl)cn1 [Compound 199]	8.00 to 8.30	< 7.00
Cn1nccc1Nc1cc(-c2cc3n(c2)C[C@H](CF)n2c-3nnc2C(F)(F)n2cc(Cl)cn2)c(Cl)cn1 [Compound 200]	8.00 to 8.30	≥ 7.00
COC[C@H]1Cn2cc(-c3cc(Nc4ccnn4C)ncc3C)cc2-c2nnc(C(F)(F)c3ccccc3Cl)n21 [Compound 201]	< 8.00	≥ 7.00
COC[C@H]1Cn2cc(-c3nc(Nc4ccnn4C)ncc3C)cc2-c2nnc(C(F)(F)c3ccccc3Cl)n21 [Compound 202]	8.00 to 8.30	≥ 7.00
Cn1nccc1Nc1cc(-c2cc3n(c2)C[C@H](Cc2ccccc2)n2c(CCC(F)(F)F)nnc2-3)c(Cl)cn1 [Compound 203]	8.00 to 8.30	≥ 7.00
Cc1cnc(Nc2ccnn2C)cc1-c1cc2n(c1)C[C@H](C(F)F)n1c-2nnc1C(F)(F)c1ccccc1Cl [Compound 204]	< 8.00	≥ 7.00
Cc1cnc(Nc2ccnn2C)nc1-c1cc2n(c1)C[C@H](C(F)F)n1c-2nnc1C(F)(F)c1ccccc1Cl [Compound 205]	< 8.00	≥ 7.00
Cn1nccc1Nc1cc(-c2cc3n(c2)C[C@H](CF)n2c-3nnc2C(F)(F)c2ccccc2Cl)c(Cl)cn1 [Compound 206]	< 8.00	≥ 7.00
Cn1nccc1Nc1cc(-c2cc3n(c2)C[C@H](CF)n2c-3nnc2C(F)(F)c2ncccc2Cl)c(Cl)cn1 [Compound 207]	≥ 8.30	≥ 7.00
Cn1nccc1Nc1cc(-c2cc3n(c2)C[C@H](C(F)F)n2c-3nnc2C(F)(F)c2ccccc2F)c(Cl)cn1 [Compound 208]	< 8.00	≥ 7.00
Cn1nccc1Nc1cc(-c2cc3n(c2)C[C@H](C(F)F)n2c-3nnc2C(F)(F)n2cc(Cl)cn2)c(Cl)cn1 [Compound 209]	8.00 to 8.30	≥ 7.00
Cn1nccc1Nc1cc(-c2cc3n(c2)C[C@H](Cc2ccccc2)n2c-3nnc2C2(C(F)(F)F)CCC2)c(Cl)cn1 [Compound 210]	< 8.00	< 7.00
Cn1nccc1Nc1ncc(Cl)c(-c2cc3n(c2)CCCn2c(COc4ccccc4F)nnc2-3)n1 [Compound 211, 5-chloro-4-(3-((2-fluorophenoxy)methyl)-6,7-dihydro-5H-pyrrolo[1,2-a][1,2,4]triazolo[3,4-c][1,4]diazepin-10-yl)-N-(1-methyl-1H-pyrazol-5-yl)pyrimidin-2-amine]	8.00 to 8.30	≥ 7.00
Cn1nccc1Nc1ncc(Cl)c(-c2cc3c4nnc(CC(F)(F)F)n4ccn3c2)n1 [Compound 212]	≥ 8.30	≥ 7.00
Cn1nccc1Nc1ncc(Cl)c(-c2cc3n(c2)CCCn2c(COC4(C(F)(F)F)CCC4)nnc2-3)n1 [Compound 213]	≥ 8.30	≥ 7.00
COc1cnc(Nc2ccnn2C)cc1-c1cc2n(c1)CC(F)(F)Cn1c-2nnc1C1(C(F)(F)F)CCC1 [Compound 214]	8.00 to 8.30	< 7.00
Cn1nccc1Nc1cc(-c2cc3n(c2)C[C@H](O)Cn2c-3nnc2C2(C(F)(F)F)CCC2)c(Cl)cn1 [Compound 215, (S)-10-(5-chloro-2-((1-methyl-1H-pyrazol-5-yl)amino)pyridin-4-yl)-3-(1-(trifluoromethyl)cyclobutyl)-6,7-dihydro-5H-pyrrolo[1,2-a][1,2,4]triazolo[3,4-c][1,4]diazepin-6-ol]	≥ 8.30	≥ 7.00
Cn1nccc1Nc1cc(-c2cc3n(c2)C[C@@H](O)Cn2c-3nnc2C2(C(F)(F)F)CCC2)c(Cl)cn1 [Compound 216]	≥ 8.30	≥ 7.00
Cn1nccc1Nc1cc(-c2cc3n(c2)CC(F)(F)Cn2c(Cn4cccc4C#N)nnc2-3)c(Cl)cn1 [Compound 217, 1-((10-(5-chloro-2-((1-methyl-1H-pyrazol-5-yl)amino)pyridin-4-yl)-6,6-difluoro-6,7-dihydro-5H-pyrrolo[1,2-a][1,2,4]triazolo[3,4-c][1,4]diazepin-3-yl)methyl)-1H-pyrrole-2-carbonitrile]	≥ 8.30	≥ 7.00
Cn1nccc1Nc1cc(-c2cc3n(c2)CC(F)(F)Cn2c(Cn4ccc(F)c4C#N)nnc2-3)c(Cl)cn1 [Compound 218]	8.00 to 8.30	≥ 7.00
Cn1nccc1Nc1cc(-c2cc3n(c2)CC(F)(F)Cn2c(Cn4cc(F)cc4C#N)nnc2-3)c(Cl)cn1 [Compound 219]	≥ 8.30	< 7.00
COC[C@H]1Cn2cc(-c3nc(Nc4ccnn4C)ncc3C)nc2-c2nnc(C(F)(F)c3ccccc3Cl)n21 [Compound 220, (R)-4-(3-((2-chlorophenyl)difluoromethyl)-5-(methoxymethyl)-5,6-dihydroimidazo[1,2-a][1,2,4]triazolo[3,4-c]pyrazin-9-yl)-5-methyl-N-(1-methyl-1H-pyrazol-5-yl)pyrimidin-2-amine]	≥ 8.30	≥ 7.00
Cc1cnc(Nc2ccnn2C)nc1-c1cn2c(n1)-c1nnc(C(F)(F)c3ccccc3Cl)n1[C@H](C)C2 [Compound 221]	≥ 8.30	≥ 7.00
Cc1cnc(Nc2ccnn2C)nc1-c1cn2c(n1)-c1nnc(C(F)(F)c3ccccc3Cl)n1[C@@H](C)C2 [Compound 222]	≥ 8.30	≥ 7.00
